The conditions of series [1]: cited from earlier work; for myelosuppression / bone marrow toxicity: in vivo.
For series [2] the following is noted: cited from earlier work; for relief of bone pain: humans.
For series [3] the following is noted: in vivo; cited from earlier work.
Series [4] has as its system Chinese hamster V79 cells. The series is described as follows: Radiotoxicity in cultured mammalian cells (colony survival). Type of series: cell-based. As to conditions: 14 h labeling, 72 h at 10.5° C.
Experimental: The present study examines the radiotoxicity of composition of the invention when incorporated into cultured mammalian cells.
The cells were then resuspended in fresh culture medium and maintained at 10.5° C. on a rocker-roller for 72 h. Cells were then washed again, serially diluted, and seeded into culture dishes. After 1 week the colonies were stained and counted, the surviving fraction compared to unlabeled controls was determined.

The text below walks through data of US6541514B2, “Process for the manufacture of 117Sn diethylenetriaminepentaacetic acids” (Brookhaven Science Associates, LLC, priority 2001, dated 2003).

Like-named read-outs stand apart in the source and are kept apart here.

In the case of `[89Sr+2].[Cl-].[Cl-]` [^89Sr, ^89SrCl2], the “decrease in platelet count” value in series [1] (four weeks after therapy) is 30%. In series [2] (patients), the “duration of pain relief / response” value is on record as “three to six months”, the “patients with bone pain / symptom relief” value was 60 to 80% and the “time to pain relief / clinical benefit after administration” value (“time to pain relief / clinical benefit” for short) was “two to four weeks after injection”. In series [3], the “biological half-life in normal bone” value was 14 days and the “biological half-life in osteoblastic metastases” value is reported as “exceeds 50 days”.
`O=P([O-])(O)CN(CCN(CP(=O)([O-])O)CP(=O)(O)O)CP(=O)([O-])O.[153Sm+3]` [^153Sm-EDTMP, ^153Sm ethylenediaminetetramethylenephosphonate (EDTMP) complex]: the “myelosuppression / bone marrow toxicity” value in series [1] is recorded as “Reversible myelosuppression”. Moreover, in series [2] (patients), the “duration of pain relief / response” value is listed as “four to forty weeks” and the “time to pain relief / clinical benefit” value is “within two weeks”.
`O=[32P](O)(O)O` [^32P orthophosphate]: in series [2] (patients), the “duration of pain relief / response” value is given as “two to four months” and the “time to pain relief / clinical benefit” value is “within five to fourteen days”. The “increase in uptake in bone around osseous metastases as compared to normal bone” value in series [3] is given as 3- to 5 fold.
As to “^117mSn (Sn^4+) diethylenetriaminepentaacetic acid (DTPA) [^117mSn(Sn^4+)DTPA]”, the “myelosuppression / bone marrow toxicity” value in series [1] was “no substantial toxicity to marrow tissues”; in series [1] (listed as 117mSn (Sn^4+) DTPA), “None of the ^117mSn (Sn^4+) DTPA compositions used in WO 95/29706 exhibited bone marrow toxicity”. For the same compound, the “relief of bone pain” value is listed as “effective agent for palliation of pain caused by bone metastases” in series [2] and “dose-dependent relief of bone pain” in series [2] (listed as 117mSn (Sn^4+) DTPA). Moreover, in series [3], the “bone uptake and retention compared with 32P orthophosphate, 153Sm-EDTMP, 186Re-HEDP and 89SrCl2” value was “higher bone uptake and retention”. The “cellular uptake required to achieve 37% survival” value in series [4] was determined as 0.95 mBq/cell.
